This is an account of results in patent publication US9265773B2, “Tetracyclic heterocycle compounds and methods of use thereof for the treatment of viral diseases” (priority 2011, dated 2016).

Structures are written as SMILES.

One experiment has as its system HCV replicon genotype 1b. Nature of the experiment: microbe, parasite or virus in culture. It is filed as cell-based. The note with it: genotype 1b replicon cells, incubated 96 hours, NS3/4A ELISA readout. (A replicon is a self-replicating genome or part of one, used to study replication in cells.)
The next experiment concerns HCV replicon genotype 1a. Briefly: microbe, parasite or virus in culture. In kind it is cell-based. The note with it: genotype 1a replicon cells, incubated 96 hours, NS3/4A ELISA readout.

By IC50 is commonly meant the point on the concentration scale where inhibition reaches its midpoint. In the case of `CNC(=O)c1c(-c2ccc(F)cc2)oc2cc(N(C)S(C)(=O)=O)c(-c3ccc4c(c3)-c3nc5ccccn5c3CCO4)cc12` [Compound 145, 5-(6,7-dihydrobenzo[2′,3′]oxepino[4′,5′:4,5]imidazo[1,2-a]pyridin-2-yl)-2-(4-fluorophenyl)-N-methyl-6-(N-methylmethylsulfonamido)benzofuran-3-carboxamide], the IC50 was found to be 2.7 nM in the experiment on HCV replicon genotype 1b (Hepatitis C virus, 96 h) and 5.3 nM in the experiment with HCV replicon genotype 1a (Hepatitis C virus, 96 h).
`CN(c1cc2oc(-c3ccc(F)cc3)c(C(=O)NC3CC3)c2cc1-c1ccc2c(n1)-c1cc3c(F)cccc3n1CO2)S(C)(=O)=O` [Compound 157]: the IC50 in the experiment with HCV replicon genotype 1b (Hepatitis C virus, 96 h) amounted to 11 nM; in the experiment on HCV replicon genotype 1a (Hepatitis C virus, 96 h), 7.6 nM.
Taken in the same sequence, the figures for `CNC(=O)c1c(-c2ccc(F)cc2)oc2cc(N(C)S(C)(=O)=O)c(-c3ccc4c(n3)-c3cc5c(F)cccc5n3C(CNS(C)(=O)=O)O4)cc12` (stereo not shown) [Compound 128, 5-(11-fluoro-6-(methylsulfonamidomethyl)-6H-pyrido[2′,3′:5,6][1,3]oxazino[3,4-a]indol-2-yl)-2-(4-fluorophenyl)-N-methyl-6-(N-methylmethylsulfonamido)benzofuran-3-carboxamide] were 0.9 nM and 2.6 nM.
On to `CNC(=O)c1c(-c2ccc(F)cc2)oc2cc(N3CCC3=O)c(-c3ccc4c(n3)-c3cc5c(F)cccc5n3CO4)cc12` [Compound 176], for which the IC50 in the experiment on HCV replicon genotype 1b (Hepatitis C virus, 96 h) is 8.8 nM; with HCV replicon genotype 1a (Hepatitis C virus, 96 h), 7.9 nM.
For the compound `CNC(=O)c1c(-c2ccc(F)cc2)oc2cc(N(C)S(C)(=O)=O)c(-c3ccc4c(n3)-c3cc5cccc(CN)c5n3CO4)cc12` [Compound 69], the IC50 with HCV replicon genotype 1b (Hepatitis C virus, 96 h) worked out at 45 nM; in the experiment on HCV replicon genotype 1a (Hepatitis C virus, 96 h) it was 57 nM.
As for `CNC(=O)c1c(-c2ccc(F)cc2)oc2cc(N(C)S(C)(=O)=O)c(-c3ccc4c(n3)-c3c(Cl)c5c(Cl)cccc5n3CO4)cc12` [Compound 57], the IC50 came to 13 nM in the experiment with HCV replicon genotype 1b (Hepatitis C virus, 96 h) and 11 nM in the experiment on HCV replicon genotype 1a (Hepatitis C virus, 96 h).
On to `CNC(=O)c1c(-c2ccc(F)cc2)oc2cc(N(C)S(C)(=O)=O)c(-c3cnc4c(n3)-c3cc5c(C#N)cccc5n3CO4)cc12` [Compound 33], for which the IC50 was 1.2 nM with HCV replicon genotype 1b (Hepatitis C virus, 96 h) and 0.9 nM in the experiment on HCV replicon genotype 1a (Hepatitis C virus, 96 h).
`CNC(=O)c1c(-c2ccc(F)cc2)oc2cc(N(CC(F)F)S(C)(=O)=O)c(-c3ccc4c(n3)-c3cc5c(C#N)cccc5n3CO4)cc12` [Compound 188]: the IC50 was 3.7 nM in the experiment on HCV replicon genotype 1b (Hepatitis C virus, 96 h) and 3.8 nM in the experiment with HCV replicon genotype 1a (Hepatitis C virus, 96 h).
Take `CNC(=O)c1c(-c2ccc(F)cc2)oc2cc(CN)c(-c3ccc4c(n3)-c3cc5c(F)cccc5n3CO4)cc12` [Compound 181]: the IC50 was determined as 14 nM in the experiment with HCV replicon genotype 1b (Hepatitis C virus, 96 h) and 13 nM in the experiment with HCV replicon genotype 1a (Hepatitis C virus, 96 h).
On to `CNC(=O)c1c(-c2ccc(F)cc2)oc2cc(N(C)S(C)(=O)=O)c(-c3ccc4c(n3)-c3cc5c(F)cccc5n3C(CNC(=O)[C@@H]3CCCN3C(=O)OC)O4)cc12` (stereo partly drawn) [Compound 124, (2S)-methyl 2-(((11-fluoro-2-(2-(4-fluorophenyl)-3-(methylcarbamoyl)-6-(N-methylmethylsulfonamido)benzofuran-5-yl)-6H-pyrido[2′,3′:5,6][1,3]oxazino[3,4-a]indol-6-yl)methyl)carbamoyl)pyrrolidine-1-carboxylate], for which the IC50 came to 4.5 nM in the experiment on HCV replicon genotype 1b and 19 nM in the experiment on HCV replicon genotype 1a.
As for `CNC(=O)c1c(-c2ccc(F)cc2)oc2cc(N3CCOC3=O)c(-c3ccc4c(n3)-c3cc5cc(F)ccc5n3CO4)cc12` [Compound 174], the IC50 in the experiment on HCV replicon genotype 1b (Hepatitis C virus, 96 h) is 4.7 nM; in the experiment with HCV replicon genotype 1a (Hepatitis C virus, 96 h) it was 13 nM.
In the same order, the values of `CCOC(=O)C(O)c1c2n(c3cccc(F)c13)COc1ccc(-c3cc4c(C(=O)NC)c(-c5ccc(F)cc5)oc4cc3N(C)S(C)(=O)=O)nc1-2` (stereo not shown) [Compound 206, ethyl 2-(11-fluoro-2-(2-(4-fluorophenyl)-3-(methylcarbamoyl)-6-(N-methylmethylsulfonamido)benzofuran-5-yl)-6H-pyrido[2′,3′:5,6][1,3]oxazino[3,4-a]indol-12-yl)-2-hydroxyacetate] are 23 nM and 15 nM.
As for `CNC(=O)c1c(-c2ccc(F)cc2)oc2cc(N(CCCF)S(C)(=O)=O)c(-c3ccc4c(n3)-c3cc5c(C#N)cccc5n3CO4)cc12` [Compound 194], the IC50 in the experiment with HCV replicon genotype 1b (Hepatitis C virus, 96 h) is 2.3 nM; with HCV replicon genotype 1a (Hepatitis C virus, 96 h) it was 1.9 nM.
In the same order, the values of `CNC(=O)c1c(-c2ccc(F)cc2)oc2cc(N(CCCF)S(C)(=O)=O)c(-c3ccc4c(n3)-c3cc5ccccc5n3CO4)cc12` [Compound 187] are 9.4 nM and 7.5 nM.
For `CNC(=O)c1c(-c2ccc(F)cc2)oc2cc(N(C)S(C)(=O)=O)c(-c3ccc4c(n3)-c3cc5c(F)cccc5n3C(CNC(=O)[C@@H]3CCCN3C(=O)OC)O4)cc12` (stereo partly shown) [Compound 126], the figures for the IC50 in the experiment on HCV replicon genotype 1b and with HCV replicon genotype 1a were 1.4 nM and 2.7 nM, respectively.
Turning to `CNC(=O)c1c(-c2ccc(F)cc2)oc2cc(N(C)S(C)(=O)=O)c(-c3ccc4c(n3)-c3cc5c(Cl)cccc5n3CO4)cc12` [Compound 14], the IC50 in the experiment with HCV replicon genotype 1b (Hepatitis C virus, 96 h) amounted to 6.2 nM; in the experiment on HCV replicon genotype 1a (Hepatitis C virus, 96 h), 3 nM.
Take `CNC(=O)c1c(-c2ccc(F)cc2)oc2cc(N)c(-c3ccc4c(n3)-c3cc5c(F)cccc5n3CO4)cc12` [Compound 163, 6-amino-5-(11-fluoro-6H-pyrido[2′,3′:5,6][1,3]oxazino[3,4-a]indol-2-yl)-2-(4-fluorophenyl)-N-methylbenzofuran-3-carboxamide]: the IC50 with HCV replicon genotype 1b (Hepatitis C virus, 96 h) was 2.2 nM; in the experiment with HCV replicon genotype 1a (Hepatitis C virus, 96 h) it was 1.1 nM.
Take `CNC(=O)c1c(-c2ccc(F)cc2)oc2cc(C(=O)OC)c(-c3ccc4c(n3)-c3cc5c(F)cccc5n3CO4)cc12` [Compound 182]: the IC50 stood at 23 nM in the experiment on HCV replicon genotype 1b (Hepatitis C virus, 96 h) and 24 nM with HCV replicon genotype 1a (Hepatitis C virus, 96 h).
For `CNC(=O)c1c(-c2ccc(F)cc2)oc2cc(N(C)S(C)(=O)=O)c(-c3ccc4c(c3)-c3cc5ccccc5n3CO4)cc12` [Compound 10], the IC50 in the experiment on HCV replicon genotype 1b (Hepatitis C virus, 96 h) is 2.4 nM; with HCV replicon genotype 1a (Hepatitis C virus, 96 h), 1.6 nM.
Taken in the same sequence, the figures for `CNC(=O)c1c(-c2ccc(F)cc2)oc2cc(N(C)S(C)(=O)=O)c(-c3nc4c(cc3C)OCn3c-4cc4c(F)cccc43)cc12` [Compound 32] were 19 nM and 5.7 nM.
`CNC(=O)c1c(-c2ccc(F)cc2)oc2cc(N(CC(F)F)S(C)(=O)=O)c(-c3ncc4c(n3)-c3cc5ccccc5n3CO4)cc12` [Compound 198]: the IC50 came out at 5.6 nM in the experiment with HCV replicon genotype 1b (Hepatitis C virus, 96 h) and 2 nM in the experiment on HCV replicon genotype 1a (Hepatitis C virus, 96 h).
Turning to `CNC(=O)c1c(-c2ccc(F)cc2)oc2cc(N(C)S(C)(=O)=O)c(-c3ccc4c(c3)-c3cc5ccccc5n3CC(N(C)CCO)CO4)cc12` (stereo not shown) [Compound 86], the IC50 with HCV replicon genotype 1b (Hepatitis C virus, 96 h) came out at 12 nM; in the experiment with HCV replicon genotype 1a (Hepatitis C virus, 96 h) it was 17 nM.
Consider `CNC(=O)c1c(-c2ccc(F)cc2)oc2cc(N(C)S(C)(=O)=O)c(-c3ccc4c(n3)-c3cc5c(F)cccc5n3C(CCO)O4)cc12` (stereo not shown) [Compound 99, 5-(11-fluoro-6-(2-hydroxyethyl)-6H-pyrido[2′,3′:5,6][1,3]oxazino[3,4-a]indol-2-yl)-2-(4-fluorophenyl)-N-methyl-6-(N-methylmethylsulfonamido)benzofuran-3-carboxamide], for which the IC50 in the experiment with HCV replicon genotype 1b (Hepatitis C virus, 96 h) worked out at 4.6 nM; in the experiment on HCV replicon genotype 1a (Hepatitis C virus, 96 h), 1.9 nM.
On to `CNC(=O)c1c(-c2ccc(F)cc2)oc2cc(N(C)S(C)(=O)=O)c(-c3ccc4c(c3)-c3cc5ccccc5n3CC(F)(F)CO4)cc12` [Compound 77, 5-(7,7-difluoro-7,8-dihydro-6H-benzo[2,3][1,5]oxazocino[5,4-a]indol-2-yl)-2-(4-fluorophenyl)-N-methyl-6-(N-methylmethylsulfonamido)benzofuran-3-carboxamide], for which the IC50 with HCV replicon genotype 1b (Hepatitis C virus, 96 h) was determined as 11 nM; in the experiment with HCV replicon genotype 1a (Hepatitis C virus, 96 h), 10 nM.
Consider `CNC(=O)c1c(-c2ccc(F)cc2)oc2cc(N(C)S(C)(=O)=O)c(-c3ccc4c(c3)-c3nc5cccc(F)c5n3CO4)cc12` [Compound 134], for which the IC50 in the experiment with HCV replicon genotype 1b (Hepatitis C virus, 96 h) was determined as 2.9 nM; in the experiment with HCV replicon genotype 1a (Hepatitis C virus, 96 h), 4 nM.
For the compound `CC(=O)N(C)C(=O)c1c(-c2ccc(F)cc2)oc2cc(N(C)S(C)(=O)=O)c(-c3ccc4c(n3)-c3cc5c(F)cccc5n3CO4)cc12` [Compound 210, N-acetyl-5-(11-fluoro-6H-pyrido[2′,3′:5,6][1,3]oxazino[3,4-a]indol-2-yl)-2-(4-fluorophenyl)-N-methyl-6-(N-methylmethylsulfonamido)benzofuran-3-carboxamide], the IC50 with HCV replicon genotype 1b (Hepatitis C virus, 96 h) worked out at 4.2 nM; with HCV replicon genotype 1a (Hepatitis C virus, 96 h) it was 2.1 nM.
In the case of `CNC(=O)c1c(-c2ccc(F)cc2)oc2cc(N(C)S(C)(=O)=O)c(-c3ccc4c(n3)-c3c(F)c5c(F)cccc5n3CO4)cc12` [Compound 59], the IC50 was found to be 4.2 nM with HCV replicon genotype 1b (Hepatitis C virus, 96 h) and 2.5 nM in the experiment with HCV replicon genotype 1a (Hepatitis C virus, 96 h).
In the same order, the values of `CNC(=O)c1c(-c2ccc(F)cc2)oc2cc(N3CCCC3=O)c(-c3ccc4c(c3)-c3cc5c(F)cccc5n3CO4)cc12` [Compound 171, 5-(11-fluoro-6H-benzo[5,6][1,3]oxazino[3,4-a]indol-2-yl)-2-(4-fluorophenyl)-N-methyl-6-(2-oxopyrrolidin-1-yl)benzofuran-3-carboxamide] are 4.7 nM and 12 nM.
On to `CNC(=O)c1c(-c2ccc(F)cc2)oc2cc(N(C)S(C)(=O)=O)c(-c3ccc4c(n3)-c3cc5c(F)cccc5n3C(C)(CO)O4)cc12` (stereo not shown) [Compound 91], for which the IC50 stood at 7.4 nM in the experiment with HCV replicon genotype 1b (Hepatitis C virus, 96 h) and 3.3 nM in the experiment on HCV replicon genotype 1a (Hepatitis C virus, 96 h).
With `CNC(=O)c1c(-c2ccc(F)cc2)oc2cc(N(CCF)S(C)(=O)=O)c(-c3ccc4c(n3)-c3cc5ccccc5n3CO4)cc12` [Compound 189], the IC50 is 4.4 nM in the experiment on HCV replicon genotype 1b (Hepatitis C virus, 96 h) and 2.9 nM with HCV replicon genotype 1a (Hepatitis C virus, 96 h).
Turning to `CNC(=O)c1c(-c2ccc(F)cc2)oc2cc(N3CC(=O)NC3=O)c(-c3ccc4c(n3)-c3cc5c(F)cccc5n3CO4)cc12` [Compound 179, 6-(2,4-dioxoimidazolidin-1-yl)-5-(11-fluoro-6H-pyrido[2′,3′:5,6][1,3]oxazino[3,4-a]indol-2-yl)-2-(4-fluorophenyl)-N-methylbenzofuran-3-carboxamide], the IC50 with HCV replicon genotype 1b (Hepatitis C virus, 96 h) turned out to be 7.4 nM; in the experiment with HCV replicon genotype 1a (Hepatitis C virus, 96 h) it was 32 nM.
Consider `CNC(=O)c1c(-c2ccc(F)cc2)oc2cc(N(C)S(C)(=O)=O)c(-c3ccc4c(n3)-c3[nH]c5cccc(F)c5c3C(c3cccs3)O4)cc12` (stereo not shown) [Compound 66, 5-(7-fluoro-6-(thiophen-2-yl)-6,11-dihydropyrido[2′,3′:5,6]pyrano[4,3-b]indol-2-yl)-2-(4-fluorophenyl)-N-methyl-6-(N-methylmethylsulfonamido)benzofuran-3-carboxamide], for which the IC50 in the experiment with HCV replicon genotype 1b (Hepatitis C virus, 96 h) was 59 nM; in the experiment on HCV replicon genotype 1a (Hepatitis C virus, 96 h), 49 nM.
